Measurements reported in patent EP4610271B1, “SELF-ASSEMBLING POLYPEPTIDE AND USE THEREOF” (Success Bio-Tech Co., Ltd., priority 2023, dated 2026).

Assays:
[1] = State of peptide solution (solution or gel) on pH adjustment with NaHCO3; format: physicochemical; conditions: for State of Peptide Under Different pH Conditions: gel: pH at which the peptide is a gel; for State of Peptide Under Different pH Conditions: solution: pH at which the peptide is a solution; for pH needed to stay in solution: typical value, concentration not stated (background, inventor's study)
Description: (§1) Unless otherwise specified, the solutions in this example refer to aqueous solutions prepared using purified water or sterile water as the solvent. Based on the AC-PRVDVRVDP-NH2 provided previously, the peptides AC-KLNLKLNLNL-NH2, AC-PRVDVRVKVRVDP-NH2, and AC-RADMSRADMS-NH2 were screened. The above-mentioned peptides were formulated into a 1 mL 2.5% w/v solution, to which 100 µL of 10-fold concentration PBS buffer was added and thoroughly mixed to achieve a final solution of approximately 1-fold PBS. […] Based on this, a similar sequence with liquid-solid phase transition capability, AC-PRVDVRVRVRVDP-NH2 (PRRVDP13), was further designed. At a concentration of 1% w/v, the pH of the two peptide solutions could be pre-adjusted to a certain level using a dropwise addition of 1% w/v NaHCO3 and shaking, without the peptide solution turning into a gel for several hours. However, at a concentration of 2% w/v, when the pH increased to around 3 using a dropwise addition of 1% w/v NaHCO3 and shaking, the peptide solution quickly turned into a gel. The classical sequence RADA16 and the original sequence PRVDP9 needed to be maintained under acidic conditions even at a lower concentration of 1% w/v to keep them in solution state. Otherwise, the solution would turn into a gel, and the color would turn white as the pH increased.

[2] = Neutralisation of peptide solution by mixing with DMEM medium, pH measured; format: physicochemical; conditions: for neutralization of acidity by mixing with DMEM medium: 2.5% w/v peptide solution
Description: As mentioned above, peptide solutions with relatively high concentrations (over 2% w/v) cannot be pre-adjusted to neutral pH before mixing with the cell suspension, and the acidity may be harmful to the cells. […] Therefore, despite the acidic nature of the 2.5% concentration solution, PRRVDP13 may still be used as a cell culture scaffold. The experimental methods are as follows. In a centrifuge tube, 1.5 mL of a 2.5% w/v self-assembling peptide solution was mixed with 1.5 mL of DMEM medium, and after gelation, additional medium was added to make a total volume of […], with a final peptide-to-medium ratio of 1:3. Alternatively, 1.5 mL of a 2.5% self-assembling peptide solution was mixed with 1.5 mL of DMEM medium to achieve a peptide-to-DMEM medium ratio of 1:1. The pH value of each group was then measured.

[3] = Screening of dissolution and gel formation on mixing with PBS or DMEM; format: physicochemical; conditions: 2.5% w/v solution mixed with 10-fold PBS (final about 1-fold) or equal volume of DMEM
Description: as §1

L929 cells [4] = assay: Cell proliferation on pre-formed peptide gel (CCK-8 assay); format: cell-based; conditions: gel of 2.5% w/v peptide solution and equal volume of DMEM, about 48 hours, CCK-8, FIGs. 4 and 5
Description: To test the biocompatibility of ISAPs, 60 µL of a 2.5% w/v peptide solution was mixed with an equal volume of DMEM medium in a cell culture plate to form a gel. Then, 120 µL of the aforementioned 1×10^5 cells/mL L929 cell suspension was loaded onto the pre-formed gel. […]. […] The cell proliferation assay was performed after culturing the cells in a cell incubator at an atmosphere of 5% CO2 for approximately 48 hours using a CCK-8 assay kit (Beyotime, C0038). For the PRRVDP13 peptide, the cell suspension was directly mixed with the peptide solution, and after the liquid-to-solid phase transition, cells were evenly distributed within the gel. The methods are as follows. 60 µL of the aforementioned L929 cell suspension of 1×10^5 cells/mL and 60 µL of PRRVDP13 peptide were added to a 96-well culture plate. After gelation, 120 µL of culture medium was added for cell culture. After approximately 48 hours of incubation in a cell incubator at an atmosphere of 5% CO2, cells were observed directly using a microscope or observed using a fluorescence microscope following staining with Calcein-AM and PI (Beyotime, C2015S) according to the manufacturer's instructions.

L929 cells [5] = assay: 3D cell culture in peptide gel, microscopy and Calcein-AM/PI staining; format: cell-based; conditions: L929 cell suspension mixed directly with peptide solution, about 48 hours, FIG. 6
Description: One potential application of ISAPs is to use them as scaffolds for supporting 3D cell culture. To validate their suitability as a 3D cell culture scaffold, L929 cells (purchased from the Kunming Cell Bank of the Chinese Academy of Sciences) that had been cultured for 48-72 hours and were in a vigorous growth phase were digested and then mixed with serum-containing DMEM medium for cell counting. The cell suspension was prepared at a concentration of 1×10^5 cells/mL with serum-containing DMEM medium. The cell suspension was mixed with the peptide in a specific ratio (60 µL:60 µL) and added to a 96-well culture plate. After gelation, 120 µL of serum-containing DMEM medium was added for cell culture. In this example, the ISAP solution was mixed with the cell suspension or cell culture medium to study their biocompatibility.
To test the biocompatibility of ISAPs, 60 µL of a 2.5% w/v peptide solution was mixed with an equal volume of DMEM medium in a cell culture plate to form a gel. Then, 120 µL of the aforementioned 1×10^5 cells/mL L929 cell suspension was loaded onto the pre-formed gel. 4 and 5. […] After approximately 48 hours of incubation in a cell incubator at an atmosphere of 5% CO2, cells were observed directly using a microscope or observed using a fluorescence microscope following staining with Calcein-AM and PI (Beyotime, C2015S) according to the manufacturer's instructions.

[6] = Liquid-to-solid phase transition triggered by PBS; format: physicochemical; conditions: 2.5% w/v solution, about 1-fold PBS, FIG. 8
Description: (§2) The experimental methods are as follows. Peptide was prepared as a 1 mL solution with a concentration of 2.5% w/v. 100 µL of a 10-fold concentration PBS buffer was added and thoroughly mixed to make the final solution as approximately 1-fold PBS to trigger gelation. The gel strength, which is related to hemostatic ability, is usually represented by the storage modulus G'. […]. The experimental methods are as follows. 3 mL of a 2.5% w/v solution of each peptide was prepared using water for injection and then 600 µL of a 5-fold concentration PBS buffer was added in to trigger gel formation. A suitable amount of gel was placed on the rheometer testing stage, with the setting of the stress of the rheometer at 1 Pa, and the scanning frequency range from 0.1 to 10 Hz to measure the storage modulus G' and loss modulus G" of the gel. To measure the viscosity of the peptide solutions, each peptide was prepared into a 2.5% w/v solution using water for injection, and a creep scan was performed using a rheometer at shear rates ranging from 0.001S^-1 to 1000S^-1 to obtain viscosity data for each peptide solution, as shown in FIGs. 7D-7F.

[7] = Rheometer measurement of gel storage modulus G' and loss modulus G"; format: physicochemical; conditions: 2.5% w/v gel triggered by PBS, compared to RADA16 and PRVDP9, FIGs. 7A-7C
Description: as §2

New Zealand rabbits = assay: Liver wound hemostasis model; format: in vivo
Description: The animal (New Zealand rabbits) was anesthetized by 2% sodium pentobarbital via ear vein injection. The animal was then fixed in a supine position on the operating table. The abdominal fur was shaved, and the area was sterilized. A standard midline incision was made, and the left lobe of liver was exposed by dissecting the liver. A sterile gauze was placed beneath the liver. A 1.0 cm long and 0.3 cm deep wound was created on the liver lobe, and the wound was wiped with gauze. The test sample (approximately 1 mL) was injected deeply onto the wound until the entire wound area was covered. The hemostatic effect was observed and the hemostasis time was recorded.

| Compound | State of Peptide Under Different pH Conditions: gel ([1]; concentration 1% w/v) | State of Peptide Under Different pH Conditions: solution ([1]; concentration 1% w/v) | pH needed to stay in solution [1] | neutralization of acidity by mixing with DMEM medium [2] | dissolution and gel formation [3] | State of Peptide Under Different pH Conditions: gel ([1]; concentration 2% w/v) | State of Peptide Under Different pH Conditions: solution ([1]; concentration 2% w/v) | pH of the peptide-DMEM mixture ([2]; 2.5% w/v, same volume ratio (1:1 or 1:3), compared with PRVDP9 and RADA16, FIG. 3) | cell proliferation on the peptide gel (L929 cells [4]) | cell viability within the gel (L929 cells [5]) | liquid-to-solid phase transition ability [6] | mechanical properties (storage modulus G') [7] | time to complete hemostasis (New Zealand rabbits; 1.25% w/v peptide solution with 1 mg/mL NaHCO3, about 1 mL on rabbit liver wound) | time to complete hemostasis (New Zealand rabbits; 2.5% w/v peptide solution, about 1 mL on rabbit liver wound) | bleeding after rinsing off the hydrogel (New Zealand rabbits; surface hydrogel rinsed off with normal saline after 2 minutes of hemostasis) |
| --- | --- | --- | --- | --- | --- | --- | --- | --- | --- | --- | --- | --- | --- | --- | --- |
| Ac-PRVDVRVDP-NH2 [PRVDP9, AC-PRVDVRVDP-NH2, reference compound] | pH ≥ 3.50, gel | pH < 3.50, solution | < 3 | relatively more difficult to neutralize |  |  |  |  |  |  |  |  |  |  |  |
| Ac-PRVDVRVKVRVDP-NH2 [AC-PRVDVRVKVRVDP-NH2] | pH ≥ 4.05, gel | pH < 4.05, solution |  |  | dissolved easily and formed a good gel | pH ≥ 3.20, gel | pH < 3.20, solution |  |  |  |  |  |  |  |  |
| CC(=O)N[C@@H](CCCNC(=N)N)C(=O)N[C@@H](C)C(=O)N[C@@H](CC(=O)O)C(=O)N[C@@H](C)C(=O)N[C@@H](CCCNC(=N)N)C(=O)N[C@@H](C)C(=O)N[C@@H](CC(=O)O)C(=O)N[C@@H](C)C(=O)N[C@@H](CCCNC(=N)N)C(=O)N[C@@H](C)C(=O)N[C@@H](CC(=O)O)C(=O)N[C@@H](C)C(=O)N[C@@H](CCCNC(=N)N)C(=O)N[C@@H](C)C(=O)N[C@@H](CC(=O)O)C(=O)N[C@@H](C)C(N)=O [RADA16, AC-RADARADARADARADA-NH2, reference compound] | pH ≥ 3.40, gel | pH < 3.40, solution | < 3 | relatively more difficult to neutralize |  |  |  |  |  |  |  |  |  |  |  |
| Ac-PRVDVRVRVRVDP-NH2 [PRRVDP13, AC-PRVDVRVRVRVDP-NH2] | pH ≥ 6.29, gel | pH < 6.29, solution |  | easily neutralized |  | pH ≥ 3.25, gel | pH < 3.25, solution | significantly higher | good proliferation | majority of cells were viable | good liquid-to-solid phase transition ability | better mechanical properties | ≤ 50 s | ≤ 50 s | no new bleeding appeared |
